Test results from patent publication US20140206708A1, “COMPOSITION FOR OPHTHALMIC ADMINISTRATION” (Rigel Pharmaceuticals, Inc., priority 2013, published 2014).
In brackets after ≈: the same amount, converted by molar mass.

Key:
[1] = Aqueous solubility; assay type: physicochemical
[2] = solution pH 8, stored at room temperature for approximately 16 months

Row | solubility ([1]; water (aqueous), room temperature) [µg/mL] | Compound | aqueous solubility compared with free acid form and compound II [1] | solubility in water ([1]; in water) | compound I choline salt converted to compound II [2]
1 | – | C#CCOc1ccc(Nc2nc(Nc3ccc(C)c(S(=O)(=O)NC(=O)CC)c3)ncc2F)cc1.C[N+](C)(C)CCO [VII, 5-Fluoro-N2-[4-methyl-3-(N-propionylaminosulfonyl)phenyl]-N4-[4-(2-propynyloxy)phenyl]-2,4-pyrimidinediamine Choline Salt] | significantly higher aqueous solubility than both its free acid form and compound II | about 9.1 mg/mL | about 5%
2 | ~0.9 (≈ 2.11 µM) | C#CCOc1ccc(Nc2nc(Nc3ccc(C)c(S(N)(=O)=O)c3)ncc2F)cc1 [Compound II, N2-(3-aminosulfonyl-4-methylphenyl)-5-fluoro-N4-[4-(prop-2-ynyloxy)phenyl]-2,4-pyrimidinediamine] | – | – | –
